# Measured values from US20110039879A1, “METHODS FOR INCREASING WHITE BLOOD CELLS” (FibroGen ,Inc., priority 2007, published 2011).
# Experiments:
# Type in all cases: in vivo, Swiss-Webster mice
# [1] = test system: total white blood cell (WBC); test: Total white blood cells by complete blood count on day 8, dosing day 1, 3, 5; details: Mus musculus, 192 h, mice, oral gavage, measured on day 8, read-out: Total WBC % Increase Over Control; for change in vivo at 200 mg/kg: 200 mg/kg on day 1, day 3 and day 5; for change in vivo at 100 mg/kg: 100 mg/kg on day 1, day 3 and day 5; for change in vivo at 60 mg/kg: 60 mg/kg on day 1, day 3 and day 5
# Procedure: (§1) To examine the effect of compounds and methods of the present invention on increasing white blood cells, the following studies were performed. In one series of experiments, male Swiss-Webster mice were administered various compounds of the present invention via oral gavage using a ball-tipped gavage needle. […] Animals were dosed once daily for 3 or 4 days. Six hours after the final dosing, 200 μl blood samples were collected and total white blood cell, neutrophil, and lymphocyte levels were measured by complete blood count (CBC) using a CellDyn cell analyzer (Abbott Laboratories).
# (§2) In another series of experiments, male Swiss-Webster mice were administered various compounds (see Table 7 and Table 8) of the present invention via oral gavage using a ball-tipped gavage needle. […] Total WBC, neutrophil, lymphocyte, and monocyte levels were measured in mice as described above on day 8 following administration of compound on day 1, day 3, and day 5.
# neutrophils [2] = test: Neutrophils by complete blood count on day 8, dosing day 1, 3, 5; details: Mus musculus, Neutrophil, 192 h, mice, oral gavage, measured on day 8, read-out: Neutrophils % Increase Over Control; for change in vivo at 200 mg/kg: 200 mg/kg on day 1, day 3 and day 5; for change in vivo at 100 mg/kg: 100 mg/kg on day 1, day 3 and day 5; for change in vivo at 60 mg/kg: 60 mg/kg on day 1, day 3 and day 5
# Procedure: as §1, §2
# lymphocytes = test: Lymphocytes by complete blood count on day 8, dosing day 1, 3, 5; details: mice, oral gavage, measured on day 8
# Procedure: as §1, §2
# monocytes = test: Monocytes by complete blood count on day 8, dosing day 1, 3, 5; details: mice, oral gavage, measured on day 8
# [3] = test system: total white blood cell (WBC); test: Total white blood cells by complete blood count on day 8, dosing day 1, 3, 5; details: mice, oral gavage, measured on day 8
# neutrophils [4] = test: Neutrophils by complete blood count on day 8, dosing day 1, 3, 5; details: mice, oral gavage, measured on day 8
# [5] = Mus musculus, Lymphocyte, 192 h, 200 mg/kg on day 1, day 3 and day 5, read-out: Lymphocytes % Increase Over Control
# [6] = 200 mg/kg on day 1, day 3 and day 5
# [7] = Mus musculus, Monocyte, 192 h, 200 mg/kg on day 1, day 3 and day 5, read-out: Monocytes % Increase Over Control
# [8] = Mus musculus, Lymphocyte, 192 h, 100 mg/kg on day 1, day 3 and day 5, read-out: Lymphocytes % Increase Over Control
# [9] = 100 mg/kg on day 1, day 3 and day 5
# [10] = Mus musculus, Lymphocyte, 192 h, 60 mg/kg on day 1, day 3 and day 5, read-out: Lymphocytes % Increase Over Control
# [11] = 60 mg/kg on day 1, day 3 and day 5
# [12] = Mus musculus, Monocyte, 192 h, 60 mg/kg on day 1, day 3 and day 5, read-out: Monocytes % Increase Over Control
# [13] = 20 mg/kg on day 1, day 3 and day 5
# [14] = Mus musculus, Monocyte, 192 h, 100 mg/kg on day 1, day 3 and day 5, read-out: Monocytes % Increase Over Control
# [15] = 6 mg/kg on day 1, day 3 and day 5
SMILES,change in vivo at 100 mg/kg [1] [%],change in vivo at 100 mg/kg (neutrophils [2]) [%],change in vivo at 100 mg/kg (lymphocytes; [8]) [%],Lymphocytes (lymphocytes; [9]),Monocytes (monocytes; [9]),"Total WBC [3, 9]",Neutrophils (neutrophils [4]; [9]),change in vivo at 60 mg/kg [1] [%],change in vivo at 60 mg/kg (lymphocytes; [10]) [%],Lymphocytes (lymphocytes; [11]),Monocytes (monocytes; [11]),"Total WBC [3, 11]",Neutrophils (neutrophils [4]; [11]),further results
"N#Cc1nc(C(=O)NCC(=O)O)c(O)c2c(Cl)c(Cl)n(Cc3ccccc3)c12 [Compound Q, [(1-Benzyl-2,3-dichloro-7-cyano-4-hydroxy-1H-pyrrolo[2,3-c]pyridine-5-carbonyl)-amino]-acetic acid]",–,–,–,–,–,–,–,–,–,–,–,–,–,"change in vivo at 200 mg/kg [1]: 475%; change in vivo at 200 mg/kg (neutrophils [2]): 233%; change in vivo at 200 mg/kg (lymphocytes; [5]): 522%; Lymphocytes (lymphocytes; [6]): 36.0 10^3 cells/μl; change in vivo at 200 mg/kg (monocytes; [7]): 14%; Monocytes (monocytes; [6]): 0.1 10^3 cells/μl; Total WBC [3, 6]: 38.7 10^3 cells/μl; Neutrophils (neutrophils [4]; [6]): 2.5 10^3 cells/μl"
"C[C@H](c1ccccc1)n1c(Cl)c(Cl)c2c(O)c(C(=O)NCC(=O)O)nc(C#N)c21 [Compound L, {[(R)-2,3-Dichloro-7-cyano-4-hydroxy-1-(1-phenyl-ethyl)-1H-pyrrolo[2,3-c]pyridine-5-carbonyl]-amino}-acetic acid]",281,469,262,18.0 10^3 cells/μl,0.0 10^3 cells/μl,22.8 10^3 cells/μl,4.8 10^3 cells/μl,–,–,–,–,–,–,–
"C[C@@H](c1ccccc1)n1c(Cl)c(Cl)c2c(O)c(C(=O)NCC(=O)O)nc(C#N)c21 [Compound AL, {[(S)-2,3-Dichloro-7-cyano-4-hydroxy-1-(1-phenyl-ethyl)-1H-pyrrolo[2,3-c]pyridine-5-carbonyl]-amino}-acetic acid]",–,–,–,–,–,–,–,–,–,–,–,–,–,"change in vivo at 200 mg/kg [1]: 207%; change in vivo at 200 mg/kg (neutrophils [2]): 265%; change in vivo at 200 mg/kg (lymphocytes; [5]): 205%; Lymphocytes (lymphocytes; [6]): 15.3 10^3 cells/μl; change in vivo at 200 mg/kg (monocytes; [7]): 33%; Monocytes (monocytes; [6]): 0.1 10^3 cells/μl; Total WBC [3, 6]: 18.2 10^3 cells/μl; Neutrophils (neutrophils [4]; [6]): 2.8 10^3 cells/μl"
"N#Cc1nc(C(=O)NCC(=O)O)c(O)c2ccc(Oc3ccccc3)cc12 [Compound Z, [(1-Cyano-4-hydroxy-7-phenoxy-isoquinoline-3-carbonyl)-amino]-acetic acid]",–,–,–,–,–,–,–,6,0,7.1 10^3 cells/μl,0.1 10^3 cells/μl,8.3 10^3 cells/μl,1.1 10^3 cells/μl,change in vivo at 60 mg/kg (neutrophils [2]): 80%; change in vivo at 60 mg/kg (monocytes; [12]): 200%
"COc1cccc(Cn2ccc3c(O)c(C(=O)NCC(=O)O)nc(C#N)c32)c1 [Compound M, {[7-Cyano-4-hydroxy-1-(3-methoxy-benzyl)-1H-pyrrolo[2,3-c]pyridine-5-carbonyl]-amino}-acetic acid]",–,–,–,–,–,–,–,149,126,7.5 10^3 cells/μl,0.1 10^3 cells/μl,9.7 10^3 cells/μl,0.6 10^3 cells/μl,change in vivo at 60 mg/kg (monocytes; [12]): 100%
"N#Cc1nc(C(=O)NCC(=O)O)c(O)c2ccn(Cc3ccc(-c4ccccc4)cc3)c12 [Compound AU, [(1-Biphenyl-4-ylmethyl-7-cyano-4-hydroxy-1H-pyrrolo[2,3-c]pyridine-5-carbonyl)-amino]-acetic acid]",–,–,–,–,–,–,–,290,332,21.0 10^3 cells/μl,0.3 10^3 cells/μl,22.6 10^3 cells/μl,1.1 10^3 cells/μl,change in vivo at 60 mg/kg (neutrophils [2]): 63%; change in vivo at 60 mg/kg (monocytes; [12]): 118%
"CCCCCCn1cc(Cl)c2c(O)c(C(=O)NCC(=O)O)nc(C#N)c21 [Compound AS, [(3-Chloro-7-cyano-1-hexyl-4-hydroxy-1H-pyrrolo[2,3-c]pyridine-5-carbonyl)-amino]-acetic acid]",–,–,–,–,–,–,–,–,–,–,–,–,–,"change in vivo at 20 mg/kg [1, 13]: 24%; change in vivo at 20 mg/kg (neutrophils [2]; [13]): 42%; change in vivo at 20 mg/kg (lymphocytes; Mus musculus, Lymphocyte, 192 h, 20 mg/kg on day 1, day 3 and day 5, read-out: Lymphocytes % Increase Over Control): 24%; Lymphocytes (lymphocytes; [13]): 6.0 10^3 cells/μl; change in vivo at 20 mg/kg (monocytes; Mus musculus, Monocyte, 192 h, 20 mg/kg on day 1, day 3 and day 5, read-out: Monocytes % Increase Over Control): -8%; Monocytes (monocytes; [13]): 0.2 10^3 cells/μl; Total WBC [3, 13]: 7.2 10^3 cells/μl; Neutrophils (neutrophils [4]; [13]): 0.9 10^3 cells/μl"
"N#Cc1nc(C(=O)NCC(=O)O)c(O)c2c(Cl)cn(Cc3ccccc3)c12 [Compound F, [(1-Benzyl-3-chloro-7-cyano-4-hydroxy-1H-pyrrolo[2,3-c]pyridine-5-carbonyl)-amino]-acetic acid]",81,23,86,11.6 10^3 cells/μl,0.1 10^3 cells/μl,12.6 10^3 cells/μl,0.7 10^3 cells/μl,–,–,–,–,–,–,–
"Cc1ccc(Oc2cccc3c(C#N)nc(C(=O)NCC(=O)O)c(O)c23)cc1 [Compound BA, [(1-Cyano-4-hydroxy-5-p-tolyloxy-isoquinoline-3-carbonyl)-amino]-acetic acid]",434,38,514,23.8 10^3 cells/μl,0.2 10^3 cells/μl,24.7 10^3 cells/μl,0.7 10^3 cells/μl,–,–,–,–,–,–,change in vivo at 100 mg/kg (monocytes; [14]): 20%
"N#Cc1nc(C(=O)NCC(=O)O)c(O)c2ccn(Cc3ccccc3F)c12 [Compound I, {[7-Cyano-1-(2-fluoro-benzyl)-4-hydroxy-1H-pyrrolo[2,3-c]pyridine-5-carbonyl]-amino}-acetic acid]",95,17,127,12.1 10^3 cells/μl,0.2 10^3 cells/μl,13.1 10^3 cells/μl,0.8 10^3 cells/μl,–,–,–,–,–,–,change in vivo at 100 mg/kg (monocytes; [14]): 425%
"O=C(O)CNC(=O)c1ncc2cc(Br)ccc2c1O [Compound T, [(7-Bromo-4-hydroxy-isoquinoline-3-carbonyl)-amino]-acetic acid]",–,–,–,–,–,–,–,17,13,6.2 10^3 cells/μl,0.0 10^3 cells/μl,7.3 10^3 cells/μl,1.0 10^3 cells/μl,change in vivo at 60 mg/kg (neutrophils [2]): 40%
"N#Cc1nc(C(=O)NCC(=O)O)c(O)c2c(Cl)cn(Cc3ccc(-c4ccccc4)cc3)c12 [Compound AW, [(1-Biphenyl-4-ylmethyl-3-chloro-7-cyano-4-hydroxy-1H-pyrrolo[2,3-c]pyridine-5-carbonyl)-amino]-acetic acid]",–,–,–,–,–,–,–,–,–,–,–,–,–,"change in vivo at 200 mg/kg [1]: 616%; change in vivo at 200 mg/kg (neutrophils [2]): 604%; change in vivo at 200 mg/kg (lymphocytes; [5]): 635%; Lymphocytes (lymphocytes; [6]): 34.1 10^3 cells/μl; change in vivo at 200 mg/kg (monocytes; [7]): 100%; Monocytes (monocytes; [6]): 0.2 10^3 cells/μl; Total WBC [3, 6]: 39.1 10^3 cells/μl; Neutrophils (neutrophils [4]; [6]): 4.7 10^3 cells/μl"
"Cc1nc(C(=O)NCC(=O)O)c(O)c2cccc(Oc3ccc(F)cc3)c12 [Compound AE, {[8-(4-Fluoro-phenoxy)-4-hydroxy-1-methyl-isoquinoline-3-carbonyl]-amino}-acetic acid]",–,–,–,–,–,–,–,–,–,–,–,–,–,"change in vivo at 6 mg/kg (lymphocytes; Mus musculus, Lymphocyte, 192 h, 6 mg/kg on day 1, day 3 and day 5, read-out: Lymphocytes % Increase Over Control): 105%; Lymphocytes (lymphocytes; [15]): 11.0 10^3 cells/μl; Monocytes (monocytes; [15]): 0.1 10^3 cells/μl; change in vivo at 6 mg/kg ([3]; Mus musculus, 192 h, 6 mg/kg on day 1, day 3 and day 5, read-out: Total WBC % Increase Over Control): 109%; Total WBC [3, 15]: 12.3 10^3 cells/μl; change in vivo at 6 mg/kg (neutrophils [4]; Mus musculus, Neutrophil, 192 h, 6 mg/kg on day 1, day 3 and day 5, read-out: Neutrophils % Increase Over Control): 175%; Neutrophils (neutrophils [4]; [15]): 1.1 10^3 cells/μl"
